For 59 molecules, viability results are on record in paper PMC12040169 (PLOS Biology, 2025).

Each structure is given as a SMILES string.

The data set can be described thus: in vitro. The settings on record: human, hela cells, % viability.
`CN(C)c1ccc(C(=O)N2C3CCC2CC(O)(c2ccco2)C3)cc1` (centres unmarked) [CBK284117]: the viability at 28.5 h, 10 µM is 93.3%.
Turning to `Cc1cc2c(cc3c(=O)n(CC(=O)NC4CCC4)nc(C)n32)s1` [CBK284118], the viability at 28.5 h, 10 µM turned out to be 107%.
In the case of `CCc1nn(CC(=O)N2CCCCC2)c(=O)c2cc3ccsc3n12` [CBK284119], the viability at 28.5 h, 10 µM is 85.7%.
Regarding `CCc1nn(CC(=O)N(CC)CC)c(=O)c2cc3sc(C)cc3n12` [CBK284121], the viability at 28.5 h, 10 µM was 86.2%.
Then `CCOC(=O)C(C)n1nc(CC)n2c(cc3ccsc32)c1=O` (centres unmarked) [CBK284127], with 103%; and `CCc1nn(CC(=O)NC2CC2)c(=O)c2cc3ccsc3n12` [CBK284128], with 88.6%; and `CCc1nn(CC(=O)NCC2CC2)c(=O)c2cc3ccsc3n12` [CBK284129], with 87.8%.
In the case of `CCc1nn(CC(=O)NC(C)C)c(=O)c2cc3ccsc3n12` [CBK284131], the viability at 28.5 h, 10 µM is 82.6%.
For the molecule `CCc1nn(CC(=O)NC2CCCC2)c(=O)c2cc3ccsc3n12` [CBK284134], the viability at 28.5 h, 10 µM came to 98.4%.
On to `COc1ccc(CC(=O)N2C3CCC2CC(O)(c2ccco2)C3)cc1` (centres unmarked) [CBK284137], for which the viability at 28.5 h, 10 µM came to 92.5%.
The same measure for `O=C(Cc1cccc(F)c1)N1C2CCC1CC(O)(c1ccco1)C2` (centres unmarked) [CBK284138]: 95.3%.
Turning to `CCCc1nn(CC(=O)NC2CC2)c(=O)c2cc3ccsc3n12` [CBK284146], the viability at 28.5 h, 10 µM turned out to be 85.3%.
For `CCCc1nn(CC(=O)NC(C)C)c(=O)c2cc3ccsc3n12` [CBK284147], the viability at 28.5 h, 10 µM was found to be 87.5%.
Regarding `CCn1c2cc(C)sc2c2cnn(CCN3CCCC3)c(=O)c21` [CBK284151], the viability at 28.5 h, 10 µM came out at 99.7%.
Regarding `Cc1cc2c(s1)c1cnn(CC(=O)N3CCCC3)c(=O)c1n2C` [CBK284153], the viability at 28.5 h, 10 µM came out at 85.6%.
`CCOC(=O)C(C)n1ncc2c3sc(C)cc3n(C)c2c1=O` (centres unmarked) [CBK284157]: the viability at 28.5 h, 10 µM was determined as 85.9%.
On to `Cc1cc2c(s1)c1cnn(CC(=O)NC(C)(C)C)c(=O)c1n2C` [CBK284158], for which the viability at 28.5 h, 10 µM was 86.6%.
Turning to `O=C(c1nccs1)C1CCN(C(=O)Cc2ccccc2F)CC1` [CBK284161], the viability at 28.5 h, 10 µM amounted to 87.3%.
With `CC(C(=O)N1CCC(C(=O)c2nccs2)CC1)c1ccccc1` (centres unmarked) [CBK284163], the viability at 28.5 h, 10 µM worked out at 80.8%.
As to `C=CCn1c2cc(C)sc2c2cnn(CC(=O)N(C)C)c(=O)c21` [CBK284164], the viability at 28.5 h, 10 µM was 83.9%.
The same measure for `C=CCn1c2cc(C)sc2c2cnn(CC(=O)OCC)c(=O)c21` [CBK284165]: 82.9%; for `CCn1c2cc(C)sc2c2cnn(CC(=O)N3CCCC3)c(=O)c21` [CBK284168]: 99.8%.
Consider `CCn1c2cc(C)sc2c2cnn(CC(=O)NC3CC3)c(=O)c21` [CBK284170], for which the viability at 28.5 h, 10 µM came out at 89.3%.
On to `CCCNC(=O)Cn1ncc2c3sc(C)cc3n(CC)c2c1=O` [CBK284171], for which the viability at 28.5 h, 10 µM is 85.8%.
With `O=C(c1nccs1)C1CCN(C(=O)C2CCCCC2)CC1` [CBK284175], the viability at 28.5 h, 10 µM came out at 107%.
Take `O=C(c1nccs1)C1CCN(C(=O)Cc2ccsc2)CC1` [CBK284176]: the viability at 28.5 h, 10 µM is 95.5%.
As for `COC(=O)CN1N=C(C(C)(C)C)Cn2c(cc3sccc32)C1=O` [CBK284177], the viability at 28.5 h, 10 µM came out at 83.3%.
The same measure for `Cn1ccnc1C1(O)CC2CCC(C1)N2C(=O)Nc1ccccc1F` (centres unmarked) [CBK284178]: 88.2%; for `Cn1ccnc1C1(O)CC2CCC(C1)N2C(=O)c1ccco1` (centres unmarked) [CBK284179]: 81.7%; for `Cc1cc2c(s1)c1cnn(CCN3CCCC3)c(=O)c1n2C` [CBK284180]: 90%.
Then `CC(C)C(=O)N1CCC(n2nc(-c3cccs3)ccc2=O)CC1` [CBK284181], with 86.6%; and `CCn1c2cc(C)sc2c2cnn(CC(=O)OC)c(=O)c21` [CBK284186], with 86.3%; and `Cc1cc2c(s1)c1cnn(CC(=O)NC3CCCC3)c(=O)c1n2C` [CBK284189], with 84.2%.
For the molecule `CCCc1nn(CC(=O)N(C)C)c(=O)c2cc3ccsc3n12` [CBK284193], the viability at 28.5 h, 10 µM came out at 84.4%.
The same measure for `O=C(C1CC=CCC1)N1CCCC(c2[nH]ncc2-c2ccncc2)C1` (centres unmarked) [CBK284198]: 93.2%; for `O=C(c1nccs1)C1CCN(C(=O)Cc2ccc(F)cc2)CC1` [CBK284199]: 104%; for `O=C(c1nccs1)C1CCN(C(=O)c2cc(F)cc(F)c2)CC1` [CBK284200]: 96.9%.
For the molecule `O=C(Cn1ncn2c(cc3ccsc32)c1=O)N1CCCCCC1` [CBK284202], the viability at 28.5 h, 10 µM stood at 81.7%.
As to `COc1ccc(C2=NNC(=O)c3cc4sccc4n3C2)cc1` [CBK284205], the viability at 28.5 h, 10 µM is 93.1%.
Take `O=C(c1nccs1)C1CCN(C(=O)C2(c3ccccc3)CC2)CC1` [CBK284206]: the viability at 28.5 h, 10 µM was 97.4%.
Regarding `O=C(c1nccs1)C1CCN(C(=O)Cc2cccc(F)c2)CC1` [CBK284208], the viability at 28.5 h, 10 µM was found to be 94.6%.
On to `CN(C)C(=O)CN1N=C(C(C)(C)C)Cn2c(cc3ccccc32)C1=O` [CBK284210], for which the viability at 28.5 h, 10 µM was 81.8%.
Consider `O=C(C1CC1)N1CCC(n2nc(-c3cccs3)ccc2=O)CC1` [CBK284213], for which the viability at 28.5 h, 10 µM was 94.7%.
With `OC1(c2ccc(F)cc2)COC2(CCNCC2)C1` (centres unmarked) [CBK284214], the viability at 28.5 h, 10 µM amounted to 93.6%.
`CCn1c2cc(C)oc2c2cnn(CC(=O)N3CCCC3)c(=O)c21` [CBK284215]: the viability at 28.5 h, 10 µM was found to be 101%.
`O=c1ccc(-c2ccc(F)cc2)nn1CC1CCNCC1` [CBK284216]: the viability at 28.5 h, 10 µM is 86.5%.
As to `Cc1cc2c(o1)c1cnn(CC(=O)N3CCCCC3)c(=O)c1n2C` [CBK284217], the viability at 28.5 h, 10 µM was determined as 90.5%.
For the molecule `Cc1cc2c(o1)c1cnn(CC(=O)N3CCCC(C)C3)c(=O)c1n2C` (centres unmarked) [CBK284218], the viability at 28.5 h, 10 µM amounted to 85%.
For `Cc1cc2c(o1)c1cnn(CC(=O)N3CCCCCC3)c(=O)c1n2C` [CBK284219], the viability at 28.5 h, 10 µM turned out to be 81.2%.
In the case of `CC1CNCCC1n1nc(-c2cccs2)ccc1=O` (centres unmarked) [CBK284221], the viability at 28.5 h, 10 µM turned out to be 82.9%.
`Cc1cc2c(o1)c1cnn(CC(=O)N3CCCC3)c(=O)c1n2C` [CBK284223]: the viability at 28.5 h, 10 µM turned out to be 100%.
On to `CCn1c2cc(C)oc2c2cnn(CC(=O)N(C)C)c(=O)c21` [CBK284224], for which the viability at 28.5 h, 10 µM was found to be 83.4%.
On to `Cc1sc2nc(C3CC3)n(C3CCNCC3)c(=O)c2c1C` [CBK284228], for which the viability at 28.5 h, 10 µM worked out at 92.3%.
As for `CCCc1nn(Cc2ccccn2)c(=O)c2cc3ccsc3n12` [CBK284229], the viability at 28.5 h, 10 µM is 61.1%.
The same measure for `CCn1c2cc(C)oc2c2cn[nH]c(=O)c21` [CBK284230]: 76.1%; for `Cc1cc2c(s1)c1cnn(CC(=O)N(C)C)c(=O)c1n2C` [CBK284231]: 99.5%; for `Cc1cc2c(o1)c1cnn(CC(=O)N(C)C)c(=O)c1n2C(C)C` [CBK284233]: 88.9%.
Consider `O=C(C1CC1)N1CCC(c2[nH]ncc2-c2ccncc2)CC1` [CBK284238], for which the viability at 28.5 h, 10 µM is 87.6%.
Then `O=C(C1CCC1)N1CCC(n2nc(C3CC3)ccc2=O)CC1` [CBK284239], with 104%.

One may read the viability as a read-out of living cells in per cent, often relative to untreated cells.
